Among the data in paper PMC6868852, “Molecular cloning and characterization of a grapevine (Vitis vinifera L.) serotonin N-acetyltransferase (VvSNAT2) gene involved in plant defense” (BMC Genomics, 2019) are Km values, retold here.

What is called Km is the concentration of substrate that gives half-maximal velocity.

The test deals with VvSNAT2. Nature of the test: HPLC product quantification; Lineweaver-Burk. Type of test: biochemical, Vitis vinifera. To be noted: acetyl-CoA 0.5 mM; 100 mM potassium phosphate pH 8.8; 30 min at 45 °C (Fig. 3 legend; Methods print below 30 °C).

Consider `NCCc1c[nH]c2ccc(O)cc12` [serotonin], for which the Michaelis constant (Km) stood at 392 µM.
